The conditions of data set [1]: obtained online; cited from earlier work.
A further data set relates to SKMEL-28 cells. The data set can be described thus: In vitro oxidative stress detection. The class given is cell-based, Human. The following applies: positive control, 1 μM, 15 minutes. The method, then: The in vitro oxidative stress was analyzed using the Image-IT® LIVE Green Reactive Oxygen Species Detection Kit from Thermo Fisher according to manufacturer's instructions. SKMEL-28 cells were seeded in a 12-well plate. PcNP was added at a final concentration of 25 μg/mL. After incubation for 12 hours, the cells were labelled with carboxy-H2DCFDA for 10 minutes and washed with PBS. The cells corresponding to the PcNP+hv treatment were irradiated with 730 nm, 0.75 W/cm^2 laser for 20 minutes. A positive control using common ROS production inducer TBHP was added to a final concentration of 1 μM and incubated for 15 minutes. After the treatment, the cell nuclei were labeled with Hoechst 33342 (1 μM). Coverslips were then washed with PBS, fixed and mounted onto microscopy glass slides for imaging by CLSM. Carboxy-H2DCFDA λex/em: 488/529 nm, Hoechst 33342 λex/em: 350/461 nm.

A short description of data set [2]: Topical penetration of porcine skin, IVIS fluorescence. As to conditions: regardless of the microneedle treatment. The class given is in vitro ADME. The method, then: Fresh full-thickness porcine skin was obtained from a local wholesaler and cut into 1 cm by 1 cm pieces. The subcutaneous fats were gently stripped from the porcine skin. Any remaining skin was kept frozen at −20° C. and used as soon as possible. A pyramidal stainless steel microneedle patch consisting of 100 needles in a 10×10 array with a height of ˜500 μm, a tip radius of 5 μm, a pitch of ˜700 μm and a base width of ˜300 μm was obtained from Micropoint Technologies Pte Ltd (Singapore). […] PcNP solution at 20 mg/mL concentration was compared against free Pc (equivalent to the concentration of Pc in PcNP at 20 mg/mL). The penetration of PcNP was tested after two durations: 10 minutes and 1 hour. The penetration was conducted with and without the help of the microneedle patch. Briefly, if required, the skin was pierced with the microneedle patch under a force of about 4 N for 10 seconds before its removal. […] The fluorescence intensity of the adsorbed Pc was measured using an IVIS SpectrumCT Pre-clinical in Vivo Imaging System (Perkin Elmer), where λex/em is 640/700-760 nm. […] To calculate the percentage of PcNP that penetrated into the skin, the intensity reading for each skin was normalized against that of PBS and PcNP positive control. In the case of free Pc penetration, this percentage was calculated by normalizing the readings against that of PBS and free Pc positive control.

Turning to `CN(C)c1ccc2nc3ccc(=[N+](C)C)cc-3sc2c1` [MB, methylene blue], the “singlet oxygen quantum yield ΦΔ(MB), reference value” in data set [1] is 0.52. For the compound `CC(C)(C)OO` [TBHP, tert-Butyl hydroperoxide], the cells oxidatively stressed result in the data set with SKMEL-28 cells is “about 74%”. Turning to `c1ccc2c(c1)-c1nc-2nc2[nH]c(nc3nc(nc4[nH]c(n1)c1ccccc41)-c1ccccc1-3)c1ccccc21` [free Pc, Phthalocyanine], in data set [2], the skin penetration entry is “minimal skin penetration”.
